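Each compound was tested at five concentrations against cells in 96-well plates for 48 hours. TGI is the concentration that stops growth completely.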
Experiments:
Experiment in all cases: NCI-60 cell line screen, 48 h
HCT-116 colon = test system: HCT-116 colon
U251 CNS = test system: U251 CNS
COLO 205 colon = test system: COLO 205 colon
SF-539 CNS = test system: SF-539 CNS
UACC-257 melanoma = test system: UACC-257 melanoma
NCI-H23 lung = test system: NCI-H23 lung
MDA-MB-435 = test system: MDA-MB-435
LOX IMVI melanoma = test system: LOX IMVI melanoma
A498 renal = test system: A498 renal
SK-MEL-5 melanoma = test system: SK-MEL-5 melanoma
NCI-H226 lung = test system: NCI-H226 lung
UACC-62 melanoma = test system: UACC-62 melanoma
T-47D breast = test system: T-47D breast
CCRF-CEM leukemia = test system: CCRF-CEM leukemia
OVCAR-4 ovarian = test system: OVCAR-4 ovarian
TK-10 renal = test system: TK-10 renal
HCC-2998 colon = test system: HCC-2998 colon

Compound	TGI (HCT-116 colon)	TGI (U251 CNS)	TGI (COLO 205 colon)	TGI (SF-539 CNS)	TGI (UACC-257 melanoma)	TGI (NCI-H23 lung)	TGI (MDA-MB-435)	TGI (LOX IMVI melanoma)	TGI (A498 renal)	TGI (SK-MEL-5 melanoma)	TGI (NCI-H226 lung)	TGI (UACC-62 melanoma)	TGI (T-47D breast)	TGI (CCRF-CEM leukemia)	TGI (OVCAR-4 ovarian)	TGI (TK-10 renal)	TGI (HCC-2998 colon)
C=C[C@H]1CC[C@H]2[C@@H]3CC=C4C[C@@H](OC5OCC(O)C(O)C5O)CC[C@]4(C)[C@H]3CC[C@]12C (some centres not stated)	28.4 µM	30.5 µM	> 100 µM	28.6 µM	> 100 µM	66.3 µM	47.8 µM	26.7 µM	21 µM	> 100 µM	34.6 µM	54.3 µM	55.3 µM	> 100 µM			
O=C1NC(=S)NC(=O)C1C(c1ccc([N+](=O)[O-])cc1)C1C(=O)NC(=S)NC1=O	> 100 µM	> 100 µM	> 100 µM		> 100 µM	> 100 µM	> 100 µM	> 100 µM	> 100 µM	> 100 µM	> 100 µM	> 100 µM	> 100 µM	> 100 µM	> 100 µM	> 100 µM	
N=C(N)C(N=Nc1ccccc1)C(N)=O (configuration not stated)	> 100 µM	> 100 µM	> 100 µM		> 100 µM	> 100 µM	> 100 µM	> 100 µM	> 100 µM	> 100 µM	> 100 µM	> 100 µM	> 100 µM		> 100 µM	> 100 µM	> 100 µM
O=C(N/N=C/c1ccc([N+](=O)[O-])cc1)c1cccc2nc3ccccc3nc12	> 100 µM	> 100 µM	> 100 µM	> 65.6 µM	> 100 µM	> 100 µM	> 100 µM	> 100 µM	> 100 µM	> 100 µM	> 100 µM	> 100 µM	> 100 µM	> 100 µM	> 100 µM	> 69.2 µM	
CN(C)CCCNc1ncnc2nc[nH]c12	> 100 µM	> 100 µM	> 100 µM			> 100 µM	> 100 µM	> 100 µM	> 100 µM	> 100 µM	> 100 µM	> 100 µM	> 100 µM	> 100 µM	> 100 µM	> 100 µM	> 100 µM
N#CCCSC1SC(=C2SC3=C(SCCS3)S2)SC1SCCC#N (configuration not stated)	> 100 µM	> 100 µM	> 100 µM	> 100 µM	> 100 µM	> 100 µM	> 100 µM	> 100 µM	> 100 µM	> 100 µM		> 100 µM	> 100 µM	> 100 µM	> 100 µM	> 100 µM	> 100 µM
C=C(C(=O)O)C1CCC(CC/C=C(\C)CC/C=C(\C)CCC=C(C)C)CO1 (configuration not stated)	17.8 µM	78.6 µM	27.4 µM	32.4 µM	52.9 µM	40.5 µM	53.7 µM	24.6 µM	54.4 µM	24.9 µM	13.1 µM	> 100 µM	> 100 µM	> 100 µM	> 100 µM	81.8 µM	

Reference: PubChem BioAssay (NCI)
